Reference: patent US20170028013A1 (Teva Pharmaceutical Industries, Ltd., priority 2015, published 2017)
One block for each compound: values may come before it.

Assays:
multiple sclerosis (MS) = details: cited from earlier work
[1] = system: acute experimental autoimmune encephalomyelitis (aEAE) model; details: in vivo; cited from earlier work
[2] = Saturated solution of laquinimod acid in 0.1 M PBS; assay type: physicochemical; details: 0.1 M PBS pH 7.4, RT
Experimental: A saturated solution of laquinimod acid […] was prepared by dissolving of 4.2283 g of Laq-acid in 0.1 M PBS (pH 7.4, 700 mL) for 3.5 h at RT. After decantation of the suspension the clear upper part was filtered through a paper (Whatman) filter. This clear, filtered solution contained about 1.5 mg/mL of laquinimod acid (Solution A).

[3] = pH optimum for stability and solubility; assay type: physicochemical
Excerpt: Developing formulations containing laquinimod and GA is particularly difficult because laquinimod and GA have different pH optimums in terms of stability and solubility and because of undesired effects, mainly gelation or the formation of turbid formulations in the presence of various buffers, solvents and surface active agents.

[4] = Laq-Na dose incorporated in a clear GA product at increased amino acid concentration; assay type: physicochemical
Experimental: To 6.015 g of Solution C additional amounts of Laq-Na were added drop by drop at stirring at RT. The solutions obtained were clear at 2-8° C. and at RT at Laq-Na concentrations 1.28, 1.49, 1.75 mg/mL.

[5] = in vivo; cited from earlier work

Compound: L-glutamic acid polymer with L-alanine, L-lysine and L-tyrosine, acetate (salt) [Glatiramer acetate]
Relapse rates, progression of disability, new MRI lesions (multiple sclerosis (MS); daily subcutaneous injections, 20 mg/injection): reduce relapse rates | Efficacy in treating multiple sclerosis (multiple sclerosis (MS); in vivo): effective

Laquinimod acid in the clear filtered saturated solution [2]: about 1.5 mg/mL
Compound: CCN(C(=O)c1c(O)c2c(Cl)cccc2n(C)c1=O)c1ccccc1 [Laquinimod, N-ethyl-N-phenyl-1,2-dihydro-4-hydroxy-5-chloro-1-methyl-2-oxoquinoline-3-carboxamide]
Efficacy in aEAE model [1]: effective | Solubility and stability versus pH [3]: more soluble and stable in alkaline media | Development of active MRI lesions (multiple sclerosis (MS); relapsing MS): reduce development of active MRI lesions

Laq-Na possible to incorporate ([4]; glycine 0.6 mg/mL): 1.05 to 1.07 mg/mL | Laq-Na possible to incorporate ([4]; glycine 4.2 mg/mL): 1.51 mg/mL | Laq-Na possible to incorporate ([4]; lysine 1.39 mg/mL): 1.06 to 1.09 mg/mL | Laq-Na possible to incorporate ([4]; lysine 3.38 mg/mL): 1.88 mg/mL | Laq-Na possible to incorporate ([4]; proline 0.9 mg/mL): 1.06 to 1.09 mg/mL | Laq-Na possible to incorporate ([4]; proline 2.45 mg/mL): 1.55 mg/mL
Compound: CCN(C(=O)c1c(O)c2c(Cl)cccc2n(C)c1=O)c1ccccc1 [Laquinimod sodium]
Oral bioavailability [5]: high
